Experimental data reported in paper PMC9221018, “Sulfonamide-Derived Dithiocarbamate Gold(I) Complexes Induce the Apoptosis of Colon Cancer Cells by the Activation of Caspase 3 and Redox Imbalance” (Biomedicines, 2022).
Read-outs that look alike come from different tables or passages of the source.

Assays:
Caco-2 cells [1] = experiment: MTT cytotoxicity assay in undifferentiated Caco-2 cells; assay type: cell-based, human
Protocol: (§1) The human Caco-2 cell line (TC7 clone) was kindly provided by Dr. Edith Brot-Laroche (Université Pierre et Marie Curie-Paris 6, UMR S 872, Les Cordeliers, France). Human epithelial fibroblast cells (NHDF-Ad, Lonza®®, Porriño, Spain) were kindly provided by Dr. Gracia Mendoza (Aragon Health Research Institute, IIS Aragón, Spain). Caco-2 cells (passages 40–70) and fibroblasts (passages 10–30) were maintained in a humidified atmosphere of 5% CO2 at 37 °C and grown in medium following the method used by Quero et al.. The Caco-2 cells were sub-cultured in 25 cm^2 plastic flasks at a density of 1.2 × 10^4 cells/cm^2, while the fibroblasts were sub-cultured on 75 cm^2 plastic flasks at a density of 1 × 10^4 cells/cm^2. The culture medium was replaced every 2 days.
(§2) The gold complexes were diluted in dimethyl sulfoxide (DMSO) as a 10 mM stock solution, and then diluted in cell culture medium at the desired concentrations.
(§3) For the cytotoxicity screening assays, Caco-2 cells were seeded in 96-well plates at a density of 4 × 10^3 cells/well. The culture medium was replaced with medium containing the drug panel 24 h post-seeding, and the cells were incubated for 24, 48 and 72 h. […] In differentiated Caco-2 and fibroblasts, culture medium containing metal gold complexes was added 15 days post-seeding, and the cells were incubated for 72 h. The antiproliferative effect was measured using an MTT assay, as previously described by Mármol et al.. The absorbance at 540/620 nm was measured using a SPECTROstar Nano (BMG Labtech, Ortenberg, Germany). In order to determine the selectivity index (SI), the IC50 value of the differentiated Caco-2 cells was divided by IC50 value in undifferentiated Caco-2, obtaining the ratio of the normal/cancerous cells’ toxicity.

[2] = tested on: differentiated Caco-2 cells; experiment: MTT cytotoxicity assay in differentiated Caco-2 cells (healthy cell model); assay type: cell-based, human; settings: for decrease of cell viability: complexes at their IC50 (1 1.14 μM, 3 1.7 μM, 8 7.22 μM, 9 8.56 μM), 72 h; for IC50: treatment for 72 h
Protocol: as §1, §2, §3

[3] = n-octanol-water distribution coefficient, shake-flask method; assay type: physicochemical; settings: n-octanol/buffered saline pH 7.4, shake-flask
Protocol: The n-octanol−water coefficients of the complexes were determined using a shake-flask method, as reported previously. Briefly, 100 mL buffered-saline (0.15 M NaCl, 10 mM phosphate [PO4^3−] buffer, pH 7.4) and 100 mL n-octanol were shaken for 72 h. The addition of 1 mg of the complexes followed by the centrifugation and separation of both phases gave two solutions, which were analysed by UV absorbance spectroscopy to determine their concentration in each phase. The corresponding value of log P was defined as log{[compound(organic)]/[compound(aqueous)]}.

Caco-2 cells [4] = experiment: Apoptosis measurement, annexin V-FITC/PI flow cytometry; assay type: cell-based, human; settings: complex 1 1.14 µM 48 h, complex 8 7.22 µM 72 h
Protocol: Caco-2 cells were seeded in 75 cm^2 flasks at a density of 1 × 10^4 cells/cm^2, then exposed to the drug panel for 48 or 72 h depending on the compound tested, and them stained with annexin V-FITC and sodium iodide propidio according to the manufacturer’s instructions. The cells were then transferred to flow cytometry tubes and washed twice with phosphate-buffered saline (PBS); they were then resuspended in 100 µL annexing V binding buffer (100 mM Hepes/NaOH pH 7.4, […], 2.5 mM CaCl2). In total, 5 µL annexin V-FITC and 5 µL propidium iodide (PI) were added to the tube. After 15 min of incubation at room temperature protected from light, 400 µL annexin binding buffer was added to each sample, and the signal intensity was analyzed within 1 h with Beckman Coulter Gallios (Brea, CA, USA). The data were analyzed with BD FACSDivaTM [59].

caspase-3 = experiment: Determination of active caspase 3 by flow cytometry; assay type: cell-based, human; settings: Caco-2; complex 1 1.14 µM 48 h, complex 8 7.22 µM 72 h
Protocol: (§4) Caco-2 cells were seeded in a 75 cm^2 flask at a density of 1 × 10^4 cells/cm^2; 24 h later, they were exposed to the drug panel for 48 or 72 h. Then, the cells were collected and processed as previously described. Finally, 50 µL of every sample was incubated with 5 µL anti-active caspase-3 (BD Pharmigen, San Diego, CA, USA, Clone C92-605) and 5 µL p53 antibody (Miltenyi, Auburn, CA, USA, Clone REA609). The fluorescence was measured by flow cytometry using a Beckman Coulter Gallios (Brea, CA, USA) equipped with a blue solid diode laser (488 nm) and a red solid diode laser (635 nm). For the caspase-3 determination, the excitation wavelength was set at 488 nm and the emission was set at 525 nm; for the p53 analysis, the excitation was set at 635 nm and the emission was set at 660 nm.

p53 = experiment: Determination of p53 protein by flow cytometry; assay type: cell-based, human; settings: Caco-2; complex 1 1.14 µM 48 h, complex 8 7.22 µM 72 h
Protocol: as §4

[5] = target: T1, recombinant human carbonic anhydrase IX (Homo sapiens, UniProt Q16790); experiment: Carbonic anhydrase IX esterase activity assay (4-NPA); assay type: biochemical; settings: 30 μM, 5 min incubation
T1 construct: purchased Sigma SRP6483
Protocol: The in vitro effect of metal complexes on the enzyme carbonic anhydrase IX was analyzed by monitoring conversion of 4-nitrophenyl acetate (4-NPA) to 4-nitrophenol. The tests were carried out in 96-well plates. Gold complexes (4 µL) were incubated with 4 µL recombinant human carbonic anhydrase IX (Sigma SRP6483, St Louis, MO, USA) (50 µg/mL) at 25 °C for 5 min. PBS at pH 7.35 (Sigma D1408, St Louis, MO, USA) was added to reach a final volume of 90 µL. The reaction was started by adding 10 µL 4-NPA (0.5 mM in methanol), and the absorbance at 405 nm was monitored every 30 s for 1 h using a SPECTROstar Nano (BMG Labtech, Ortenberg, Germany) multiplate reader. The results were expressed as a percentage of CA-IX activity with respect to the control. The potency of the inhibtion referred to the incubation in the presence of indisulam (E7070, N-(3-chloro-7-indolyl)-1,4-benzenedisulfonamide) (Sigma SML1225, St Louis, MO, USA), which is a specific inhibitor of carbonic anhydrase isoforms IX and XII.

[6] = 24 h incubation, read-out: IC50 24 h
[7] = 48 h incubation, read-out: IC50 48 h
[8] = 72 h incubation, read-out: IC50 72 h
[9] = treatment for 72 h, read-out: IC50

Compound | IC50 (Caco-2 cells [1]; [6]) | IC50 (Caco-2 cells [1]; [7]) | IC50 (Caco-2 cells [1]; [8]) | IC50 (Caco-2 cells [1]; [9]) | decrease of cell viability [2] | IC50 [2] | Log P7.4 [3] | induction of apoptosis (annexin V/PI) (Caco-2 cells [4]) | percentage of cells with active caspase-3 (caspase-3) | cells with active p53 (p53) | reduction in the esterase activity of CA [5]
O=S(=O)(NC(=S)[S][Au][PH](c1ccccc1)(c1ccccc1)c1ccccc1)c1ccccc1 [Complex 1, [Au(S2CNHSO2C6H5)(PPh3)]] | 1.92 ± 0.13 µM | 1.38 ± 0.21 µM | 1.14 ± 0.25 µM | 1.14 ± 0.25 µM | did not compromise the viability | 12.7 ± 0.47 µM | 0.75 | capable of inducing apoptosis | increased the percentage of cells with active caspase-3 | significant increase in cells with active p53 | 48%
[Au(S2CNHSO2-p-Me-C6H4)(IMePropargyl)] [Complex 8] | > 50 µM | 37.4 ± 7.48 µM | 7.22 ± 0.38 µM | 7.22 ± 0.38 µM | did not compromise the viability | 46.6 ± 3.26 µM | −0.13 | capable of inducing apoptosis | increased the percentage of cells with active caspase-3 | significant increase in cells with active p53 | 31%
